A short description of the data set: activity coefficient (dimensionless); of the first substance listed, at infinite dilution; xn = mol fraction of the nth substance listed. The following applies: Liquid, Chromatography, x1 = 0.

SMILES strings stand for the structures. Numbers after ± are expanded uncertainties.

For the molecule `c1ccsc1` [thiophene] + CCCCCCCCCCCCCC[P+](CCCCCC)(CCCCCC)CCCCCC.O=S(=O)([N-]S(=O)(=O)C(F)(F)F)C(F)(F)F, the activity coefficient by setting is: (302.45 K) 0.42 ± 0.04; (322.35 K) 0.4 ± 0.03; (342.45 K) 0.38 ± 0.03.
For the molecule `Cc1ccccc1` [toluene] + CCCCCCCCCCCCCC[P+](CCCCCC)(CCCCCC)CCCCCC.O=S(=O)([N-]S(=O)(=O)C(F)(F)F)C(F)(F)F, the activity coefficient turned out to be 0.46 ± 0.04 (302.45 K), 0.46 ± 0.04 (322.35 K) and 0.47 ± 0.04 (342.45 K).
Consider `ClC(Cl)Cl` [trichloromethane] + CCCCCCCCCCCCCC[P+](CCCCCC)(CCCCCC)CCCCCC.O=S(=O)([N-]S(=O)(=O)C(F)(F)F)C(F)(F)F, for which the activity coefficient (302.45 K) was determined as 0.29 ± 0.03, the activity coefficient (322.35 K) is 0.31 ± 0.03 and the activity coefficient (342.45 K) worked out at 0.32 ± 0.03.
On the same counts, the results for `CCCCCCCCCCC` [undecane] + CCCCCCCCCCCCCC[P+](CCCCCC)(CCCCCC)CCCCCC.O=S(=O)([N-]S(=O)(=O)C(F)(F)F)C(F)(F)F are 2.32 ± 0.16, 2.18 ± 0.15 and 2.1 ± 0.2.

The values above are taken from the NIST ThermoML archive (doi:10.1021/je800754w).
